Source: patent publication US4466980A, “Thiaprostaglandin E1 derivatives, process for production thereof, and pharmaceutical use thereof” (Teijin Limited, priority 1980, dated 1984)
In brackets after ≈: the same amount, converted by molar mass. Blank lines part the entries; values can stand above or below the compound they belong to.

How the values were obtained:
platelet aggregation [1] = test: platelet aggregation inhibiting activity of prior 11-deoxy-7S-prostaglandins E1 (inventors' investigations); type: cell-based
[2] = system: blood pressure and heart beat rate of rats; test: hypotensive activity and heart beat rate, intravenous injection in anesthetized rats; type: in vivo, male wister rats; conditions: Rattus norvegicus, i.v.; for ED (10% increase of heart rate): read-out: H-ED10 (dosage causing a 10% increase of the heart rate); for ED (20% lowering of blood pressure): read-out: P-ED20 (dosage causing a 20% lowering of the mean blood pressure)
Procedure: (1) The actions of the thiaprostaglandin E1 derivatives of the invention on the blood pressure and heart beat rate of rats were examined by intravenous injection under anesthesia. Male wister rats weighing about 250 g were used. Urethane (500 mg/kg) and α-chloralose (100 mg/kg) were intraperitoneally administered to the rats. The rats were anesthetized and fixed in place. Each of the test compounds was dissolved in a small amount of ethanol and diluted with physiological saline to adjust the final ethanol concentration to not more than 5%. The solution was intravenously injected into the rats through a catheter inserted into the femoral vein. The blood pressure of the rats was measured by a pressure transducer through a catheter inserted into the carotid artery of the rats. The heart beat rate was determined from the blood pressure pulse. The action of the test compound of the blood pressure was expressed as the dosage (p-ED20, μg/kg) of the test compound which caused a 20% lowering of the mean blood pressure before administration of the compound. The action of the test compound on the heart rate was expressed as the dosage (H-ED10, μg/kg) of the test compound which caused a 10% increase of the heart rate from the heart beat rate before administration of the test compound.

[3] = system: blood pressure of conscious rats; test: action on blood pressure of conscious rats, oral; type: in vivo, male wister rats
Procedure: (2) The thiaprostaglandin E1 derivatives of the invention were orally administered to conscious rats, and their action on the blood pressure was examined.
Male wister rats weighing about 250 g were used as experimental animals. These rat had been fasted for 16 hours before the start of the experiment. A catheter was inserted into the femoral artery of the rats under ether anesthesia, and then the rats were restrained within a Bollman cage. After more than 1 hour from awakening, each of the test compounds was orally administered.
The test compound was dissolved in a small amount of ethanol, and then diluted with water to adjust the final concentration of ethanol to not more than 5%. The mean blood pressure was measured by means of a pressure transducer through the catheter inserted into the femoral artery.

[4] = system: blood pressure of DOCA hypertensive rats; test: action on blood pressure of conscious DOCA hypertensive rats, oral; type: in vivo, male wistar rats
Procedure: (3) The compound (No. 138) of the invention was orally adminstered to DOCA hypertensive rats (induced by deoxycholticosteron acetate) in conscious, and its action on the blood pressure was examined.
Male wistar rats weighing about 160 g were rendered hypertensive. Specifically, one kidney was removed from the rats, and DOCA was subcutaneously administered to the rats in a dose of 10 mg/kg twice a week. While the rats were allowed to drink a 1% aqueous solution of sodium chloride, they were kept for more than 4 weeks to induce hypertension. The average blood pressure was measured in the same way as described in (2) above.

platelet aggregation [5] = test: extra vivo inhibitory activity of platelet aggregation after oral administration; type: in vivo, guinea pigs (Hartley strain); conditions: Cavia porcellus; for inhibition at 3 mg/kg: 3 mg/kg p.o.; for inhibition at 10 mg/kg: 10 mg/kg p.o.
Procedure: The extra vivo platelet aggregation inhibitory activity of the 7-thiaprostaglandin E1 derivatives of the invention were measured by using guinea pigs. A test drug prepared as a 30% ethanol solution of each of the compounds of the invention in ethanol diluted with physiological saline and as a control 30% ethanol solution were orally adminstered in a dose of 1 ml/kg to Hartleystrain guinea pigs having a body weight of 350 to 450 g which had been fasted for 17 hours. 1 hour or 4 hours after the administration of the compound, blood was drawn off by the cardiac puncture using trisodium citrate so that the ratio of the blood to 3.8% trisodium citrate was 9:1. The blood was centrifuged at a speed of 700 rpm for 10 minutes. The upper layer was separated as plateletrich plasma (PRP). The lower layer was further centrifuged at a speed of 2800 rpm for 10 minutes. The upper layer was separated as platelet poor plasma (PPP). 250 microliters of the resulting PRP was taken into an aggregometer cuvette, and incubated at 37° C. for 2 minutes. Then, 25 microliters of a […] ADP disodium solution adjusted by dissolving with 0.1M tris-HCl buffer (ph 8.0) was added. The aggregation curve was recorded for 3 minutes. The maximum degree of aggregation of platelets within this time period was read, and the rate of inhibitor of platelet aggregation was calculated from the following equation. [formula] TC : the transmittance of a control group (to which only the 30% ethanol solution was administered),
TD : the transmittance of a drug administered group.

platelet aggregation [6] = test: in vitro inhibitory activity of platelet aggregation (ADP); type: cell-based, rabbit (Japanese domestic white male); conditions: Oryctolagus cuniculus, rabbit PRP, 10 μM ADP, 37° C., read-out: IC50 (minimum concentration which inhibited more than 50% of platelet aggregation)
Procedure: The in vitro platelet aggregation imhibiting activity of the compounds of the invention were examined by using rabbits. Blood was withdrawn from the ear vein of Japanese domestic white male rabbits weighing 2.5 to 3.5 kg. A mixture of a 3.8% trisodium citrate solution and the blood in a ratio of 1:9 was centrifuged at a speed of 1000 rpm for 10 minutes. The upper layer was separated as platelet-rich plasma (PRP). The lower layer was further centrifuged at a speed of 2800 rpm for 10 minutes. The upper layer was separated as platelet-poor plasma (PPP). The number of platelets was adjusted to 6×10^5 /μl to 7×10^5 /μl by diluting the PRP with PPP. 25 microliters of the test compounds prepared as shown below was added in an amount of 25 to 250 microliters of PRP after the adjustment, and the mixture was pre-incubated at 37° C. for 2 minutes, and then 10 μM (final) of ADP was added. By using an aggregometer, changes in transmission were recorded.
The drug was dissolved in ethanol to a concentration of 10 mg/ml, and successively diluted with phosphate buffer (pH 7.4) prior to use.
The rate of inhibition of platelet aggregation was determined from the following equation. [formula] To : the transmittance of the system containing the phosphate buffer, T: the transmittance of the sytem to which the test drug was added.
The minimum concentration of the drug which inhibited more than 50% of platelet aggregation was shown as an IC50 value.

ethanol ulcer (stomach) = test: ethanol ulcer test (anti-ulcer action); type: in vivo, SD-strain rats
Procedure: An ethanol ulcer test was carried out by the following processure.
SD-strain rats (body weight 200 to 220 g; 7 weeks old) were fasted for 24 hours, and a solution of each of the test compounds in physiological saline buffered with phosphate buffer at pH 7.5 was orally administered. Thirty minutes after the administration, 75% ethanol was orally administered in a dose of 1 ml/kg. One hour later, the abdomen was incised to isolate the stomach. […] The total of these lengths was defined as the ulcer index. A control group was given physiological saline buffered with phosphate buffer (pH 7.5) and 75% ethanol.

[7] = Rattus norvegicus, po, 100 μg/kg p.o., read-out: Ulcer inhibiting rate (%)

SMILES: CCCC(C)C[C@H](O)/C=C/[C@H]1CCC(=O)[C@@H]1SCCCCCC(=O)OC (stereo partly shown)
platelet aggregation inhibiting activity (in words) (platelet aggregation [1]): very weak

SMILES: CCCCC[C@H](O)/C=C/[C@H]1CCC(=O)[C@@H]1SCCCCCC(=O)OC
platelet aggregation inhibiting activity (in words) (platelet aggregation [1]): very weak

SMILES: CCCCC[C@H](O)/C=C/[C@H]1CCC(=O)[C@@H]1SCCCCCC(=O)O [11-deoxy-7S-prostaglandin E1]
platelet aggregation inhibiting activity (in words) (platelet aggregation [1]): very weak

SMILES: CCCC(C)C[C@H](O)/C=C/[C@H]1CCC(=O)[C@@H]1SCCCCCC(=O)O (stereo partly drawn) [11-deoxy-17-methyl-7S-prostaglandin E1]
platelet aggregation inhibiting activity (in words) (platelet aggregation [1]): very weak

SMILES: COC(=O)CCCCCS[C@H]1C(=O)C[C@@H](O)[C@@H]1/C=C/[C@@H](O)C1CCCCC1 [Compound 138, 16,17,18,19,20-pentanor-15-cyclohexyl-7-thiaprostaglandin E1 methyl ester]
ED (10% increase of heart rate) [2]: > 10 µg/kg | ED (20% lowering of blood pressure) [2]: 0.68 µg/kg | mean blood pressure ([3]; 1 mg/kg p.o., 0 min, in mmHg): 116 + 4 | mean blood pressure ([3]; 1 mg/kg p.o., 10 min): 99 ± 6 | mean blood pressure ([3]; 1 mg/kg p.o., 15 min): 114 ± 2 | mean blood pressure ([3]; 1 mg/kg p.o., 30 min): 116 ± 4 | mean blood pressure ([3]; 1 mg/kg p.o., 45 min): 119 ± 4 | mean blood pressure ([3]; 1 mg/kg p.o., 60 min): 120 ± 4 | mean blood pressure ([3]; 1 mg/kg p.o., 90 min): 118 ± 3 | mean blood pressure ([3]; 1 mg/kg p.o., 120 min): 118 ± 3 | mean blood pressure ([3]; 10 mg/kg p.o., 0 min): 118 ± 3 | mean blood pressure ([3]; 10 mg/kg p.o., 10 min): 92 ± 9 | mean blood pressure ([3]; 10 mg/kg p.o., 15 min): 95 ± 9 | mean blood pressure ([3]; 10 mg/kg p.o., 30 min): 108 ± 6 | mean blood pressure ([3]; 10 mg/kg p.o., 45 min): 111 ± 4 | mean blood pressure ([3]; 10 mg/kg p.o., 60 min): 112 ± 3 | mean blood pressure ([3]; 10 mg/kg p.o., 90 min): 114 ± 4 | mean blood pressure ([3]; 10 mg/kg p.o., 120 min): 117 ± 4 | hypotensive action (in words) ([3]; p.o., especially 10 mg/kg): long-lasting hypotensive action | average blood pressure ([4]; 0.1 mg/kg p.o., 0 min): 167 ± 8 | average blood pressure ([4]; 0.1 mg/kg p.o., 10 min): 149 ± 12 | average blood pressure ([4]; 0.1 mg/kg p.o., 15 min): 156 ± 8 | average blood pressure ([4]; 0.1 mg/kg p.o., 30 min): 165 ± 7 | average blood pressure ([4]; 0.1 mg/kg p.o., 45 min): 168 ± 7 | average blood pressure ([4]; 0.1 mg/kg p.o., 60 min): 171 ± 10 | average blood pressure ([4]; 0.1 mg/kg p.o., 90 min): 177 ± 11 | average blood pressure ([4]; 0.1 mg/kg p.o., 120 min): 182 ± 13 | average blood pressure ([4]; 0.3 mg/kg p.o., 0 min): 165 ± 14 | average blood pressure ([4]; 0.3 mg/kg p.o., 10 min): 134 ± 12 | average blood pressure ([4]; 0.3 mg/kg p.o., 15 min): 141 ± 8 | average blood pressure ([4]; 0.3 mg/kg p.o., 30 min): 151 ± 7 | average blood pressure ([4]; 0.3 mg/kg p.o., 45 min): 161 ± 9 | average blood pressure ([4]; 0.3 mg/kg p.o., 60 min): 169 ± 9 | average blood pressure ([4]; 0.3 mg/kg p.o., 90 min): 170 ± 12 | average blood pressure ([4]; 0.3 mg/kg p.o., 120 min): 180 ± 10 | hypotensive action (in words) ([4]; p.o., hypertensive rats): marked hypotensive action | inhibition at 3 mg/kg (platelet aggregation [5]; 1 hr): 64.9% | inhibition at 3 mg/kg (platelet aggregation [5]; 4 hr): 23.3% | inhibition at 10 mg/kg (platelet aggregation [5]; 1 hr): 94.1% | inhibition at 10 mg/kg (platelet aggregation [5]; 4 hr): 50%

IC50 (platelet aggregation [6]): 2.8 mg/L (≈ 7.28 µM)
SMILES: O=C(O)CCSCCC[C@H]1C(=O)C[C@@H](O)[C@@H]1/C=C/[C@@H](O)C1CCCCC1 [Compound 403, 16,17,18,19,20-pentanor-15-cyclohexyl-4-thiaprostaglandin E1]
Ulcer index (mm) (ethanol ulcer (stomach); 100 μg/kg p.o., ** P < 0.01): 6.0 ± 3.8 mm | inhibition at 0.1 mg/kg (ethanol ulcer (stomach); [7]): 91.2% | antiulcer action (in words) (ethanol ulcer (stomach); p.o., Table 6): nearly the same antiulcer action as prostaglandin E1

SMILES: CCCCC[C@H](O)/C=C/[C@H]1[C@H](O)CC(=O)[C@@H]1CCCCCCC(=O)O [PGE1, prostaglandin E1]
ED (10% increase of heart rate) [2]: > 10 µg/kg | ED (20% lowering of blood pressure) [2]: 1.21 µg/kg | inhibition at 3 mg/kg (platelet aggregation [5]; 1 hr): 0% | inhibition at 3 mg/kg (platelet aggregation [5]; 4 hr): 25.9% | inhibition at 10 mg/kg (platelet aggregation [5]; 1 hr): 0% | inhibition at 10 mg/kg (platelet aggregation [5]; 4 hr): 16.9% | Ulcer index (mm) (ethanol ulcer (stomach); 30 μg/kg p.o.): 26.8 ± 12.5 mm | Ulcer index (mm) (ethanol ulcer (stomach); 100 μg/kg p.o., ** P < 0.01): 1.0 ± 1.0 mm | inhibition at 0.03 mg/kg (ethanol ulcer (stomach); Rattus norvegicus, po, 30 μg/kg p.o., read-out: Ulcer inhibiting rate (%)): 60.8% | inhibition at 0.1 mg/kg (ethanol ulcer (stomach); [7]): 98.5%
